Results from PubChem BioAssay AID256 (DTP/NCI, 2004).
Several values for one entry are separate records, joined by “and”; a condition that tells them apart may be missing. Equal values may be shown once. Toxic doses and inconclusive results are not listed. Rule for the calls: active = survival T/C of 150% or more; inactive = T/C below 125% in these data.

System: CD2F1 mice, L1210 leukemia ip, survival T/C
Assay: NCI In Vivo Anticancer Drug Screen. Data for tumor model L1210 Leukemia (intraperitoneal) in CD2F1 (CDF1) mice
Conditions: higher = longer survival
How it was run: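 Tumor-bearing mice (transplanted tumor) were split into treated and vehicle control groups, and the measured endpoint of each treated group was divided by that of its vehicle controls.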

[1] = endpoint: mean survival time, dose: 12.5 mg/kg/injection, schedule: Q04DX002 (ip), vehicle: saline with Tween-80
[2] = endpoint: mean survival time, dose: 25.0 mg/kg/injection, schedule: Q04DX002 (ip), vehicle: saline with Tween-80
[3] = endpoint: mean survival time, dose: 100.0 mg/kg/injection, schedule: Q01DX009 (ip), vehicle: saline with Tween-80
[4] = endpoint: mean survival time, dose: 200.0 mg/kg/injection, schedule: Q01DX009 (ip), vehicle: saline with Tween-80
[5] = endpoint: mean survival time, dose: 400.0 mg/kg/injection, schedule: Q01DX009 (ip), vehicle: saline with Tween-80
[6] = endpoint: mean survival time, dose: 12.5 mg/kg/injection, schedule: Q01DX009 (ip), vehicle: saline with Tween-80
[7] = endpoint: mean survival time, dose: 25.0 mg/kg/injection, schedule: Q01DX009 (ip), vehicle: saline with Tween-80
[8] = endpoint: mean survival time, dose: 50.0 mg/kg/injection, schedule: Q01DX009 (ip), vehicle: saline with Tween-80

Measured: T/C

COc1ccc(/C=C(/C#N)C(N)=O)cc1Br
inactive: endpoint: mean survival time, dose: 50.0 mg/kg/injection, schedule: Q01DX009 (ip), vehicle: acetone 96 % of control | endpoint: mean survival time, dose: 100.0 mg/kg/injection, schedule: Q01DX009 (ip), vehicle: acetone 98 % of control | endpoint: mean survival time, dose: 200.0 mg/kg/injection, schedule: Q01DX009 (ip), vehicle: acetone 93 % of control

O=[N+]([O-])c1ccc(C[P+](c2ccccc2)(c2ccccc2)c2ccccc2)cc1
inactive: endpoint: mean survival time, dose: 6.25 mg/kg/injection, schedule: Q04DX002 (ip), vehicle: saline with Tween-80 86 % of control | [1] 108 % of control | [2] 94 % of control

COc1ccc(-c2cnc(C(N)=O)c(=O)[nH]2)cc1
inactive: [3] 100 % of control | [4] 96 % of control | [5] 101 % of control

O=P(O)(O)OCCCl
inactive: endpoint: mean survival time, dose: 100.0 mg/kg/injection, schedule: Q01DX009 (ip), vehicle: saline 94 % of control | endpoint: mean survival time, dose: 100.0 mg/kg/injection, schedule: Q04DX003 (ip), vehicle: saline 100 % of control | endpoint: mean survival time, dose: 200.0 mg/kg/injection, schedule: Q01DX009 (ip), vehicle: saline 96 % of control | endpoint: mean survival time, dose: 200.0 mg/kg/injection, schedule: Q04DX003 (ip), vehicle: saline 94 % of control | endpoint: mean survival time, dose: 400.0 mg/kg/injection, schedule: Q01DX009 (ip), vehicle: saline 94 % of control | endpoint: mean survival time, dose: 400.0 mg/kg/injection, schedule: Q04DX003 (ip), vehicle: saline 94 % of control

Cc1cccc(C)c1NC(=S)NNC(=O)NNC(=S)Nc1c(C)cccc1C
inactive: [3] 95 % of control | [4] 95 % of control | [5] 105 % of control

CC(O)CN=C(N)C(N)=NCC(C)O (stereo not drawn)
inactive: [1] 108 % of control | [2] 101 % of control | endpoint: mean survival time, dose: 50.0 mg/kg/injection, schedule: Q04DX002 (ip), vehicle: saline with Tween-80 97 % of control

CC1(C2CC(=O)N(OCc3ccccc3)C2=O)OCCO1 (stereo not drawn)
inactive: endpoint: mean survival time, dose: 100.0 mg/kg/injection, schedule: Q04DX003 (ip), vehicle: other 89 % of control | endpoint: mean survival time, dose: 200.0 mg/kg/injection, schedule: Q04DX003 (ip), vehicle: other 87 % of control | endpoint: mean survival time, dose: 400.0 mg/kg/injection, schedule: Q04DX003 (ip), vehicle: other 88 % of control

COc1ccc(/C=C(\C)[N+](=O)[O-])cc1OC
inactive: endpoint: mean survival time, dose: 12.5 mg/kg/injection, schedule: Q01DX009 (ip), vehicle: water 105 % of control | endpoint: mean survival time, dose: 25.0 mg/kg/injection, schedule: Q01DX009 (ip), vehicle: water 93 % of control | endpoint: mean survival time, dose: 50.0 mg/kg/injection, schedule: Q01DX009 (ip), vehicle: water 93 % of control

CCCCOCN(COCCCC)C12CC3CC(CC(C3)C1)C2
inactive: [6] 96 % of control and 100 % of control | [7] 98 % of control | [8] 101 % of control and 103 % of control | [3] 101 % of control and 105 % of control | [4] 113 % of control and 108 % of control

C#CCCCCCC#[C][Hg][C]#CCCCCCC#C.C#CCCCCCC#[C][Hg][C]#CCCCCCC#C
inactive: endpoint: mean survival time, dose: 75.0 mg/kg/injection, schedule: Q04DX003 (ip), vehicle: saline 91 % of control | endpoint: mean survival time, dose: 150.0 mg/kg/injection, schedule: Q01DX009 (ip), vehicle: saline 91 % of control | endpoint: mean survival time, dose: 150.0 mg/kg/injection, schedule: Q04DX003 (ip), vehicle: saline 94 % of control | endpoint: mean survival time, dose: 300.0 mg/kg/injection, schedule: Q04DX003 (ip), vehicle: saline 94 % of control

Cc1ccc(S(=O)(=O)NC(=S)S)cc1
inactive: [6] 102 % of control and 110 % of control | [7] 115 % of control and 103 % of control | [8] 110 % of control and 112 % of control | [3] 113 % of control and 103 % of control | [4] 105 % of control and 111 % of control | [5] 105 % of control and 109 % of control

COC(=O)C(CCC1CCCCC1)CC1CCCCC1 (stereo not drawn)
inactive: endpoint: mean survival time, dose: 100.0 mg/kg/injection, schedule: Q04DX003 (ip), vehicle: acetone 108 % of control | endpoint: mean survival time, dose: 200.0 mg/kg/injection, schedule: Q04DX003 (ip), vehicle: acetone 102 % of control | endpoint: mean survival time, dose: 400.0 mg/kg/injection, schedule: Q04DX003 (ip), vehicle: acetone 108 % of control

O=C1C(c2ccccc2)=C(c2ccccc2)CC1O (stereo not drawn)
inactive: endpoint: mean survival time, dose: 100.0 mg/kg/injection, schedule: Q04DX003 (ip), vehicle: saline with Tween-80 103 % of control | endpoint: mean survival time, dose: 200.0 mg/kg/injection, schedule: Q04DX003 (ip), vehicle: saline with Tween-80 91 % of control | endpoint: mean survival time, dose: 400.0 mg/kg/injection, schedule: Q04DX003 (ip), vehicle: saline with Tween-80 103 % of control

COc1cc2cc(c1Cl)N(C)C(=O)CC(OC(=O)C(C)N(C)C(=O)C(C)C)C1(C)OC1C(C)C1CC(O)(NC(=O)O1)C(OC)/C=C/C=C(C)C2OC (stereo not drawn)
inactive: endpoint: median survival time, dose: 4.0 micrograms/kg/injection, schedule: Q01DX009 (ip), vehicle: Klucel (hydroxypropylcellulose) (HPC) 104 % of control | endpoint: median survival time, dose: 8.0 micrograms/kg/injection, schedule: Q01DX009 (ip), vehicle: Klucel (hydroxypropylcellulose) (HPC) 112 % of control | endpoint: median survival time, dose: 16.0 micrograms/kg/injection, schedule: Q01DX009 (ip), vehicle: Klucel (hydroxypropylcellulose) (HPC) 112 % of control | endpoint: median survival time, dose: 64.0 micrograms/kg/injection, schedule: Q01DX009 (ip), vehicle: Klucel (hydroxypropylcellulose) (HPC) 105 % of control

O/N=C(/Cc1ccccc1)c1ccccc1
inactive: endpoint: mean survival time, dose: 100.0 mg/kg/injection, schedule: Q01DX001 (ip), vehicle: saline with Tween-80 100 % of control | endpoint: mean survival time, dose: 200.0 mg/kg/injection, schedule: Q01DX001 (ip), vehicle: saline with Tween-80 92 % of control | endpoint: mean survival time, dose: 400.0 mg/kg/injection, schedule: Q01DX001 (ip), vehicle: saline with Tween-80 90 % of control

C[n+]1c(/C=C\C=C\N2CCCCC2)sc2ccccc21
inactive: endpoint: mean survival time, dose: 0.06 mg/kg/injection, schedule: Q01DX009 (ip), vehicle: Klucel (hydroxypropylcellulose) (HPC) 104 % of control | endpoint: mean survival time, dose: 0.12 mg/kg/injection, schedule: Q01DX009 (ip), vehicle: Klucel (hydroxypropylcellulose) (HPC) 104 % of control | endpoint: mean survival time, dose: 0.25 mg/kg/injection, schedule: Q01DX009 (ip), vehicle: Klucel (hydroxypropylcellulose) (HPC) 107 % of control | endpoint: mean survival time, dose: 0.31 mg/kg/injection, schedule: Q01DX009 (ip), vehicle: Klucel (hydroxypropylcellulose) (HPC) 113 % of control | endpoint: mean survival time, dose: 0.5 mg/kg/injection, schedule: Q01DX009 (ip), vehicle: Klucel (hydroxypropylcellulose) (HPC) 111 % of control | endpoint: mean survival time, dose: 0.63 mg/kg/injection, schedule: Q01DX009 (ip), vehicle: Klucel (hydroxypropylcellulose) (HPC) 97 % of control | endpoint: mean survival time, dose: 1.0 mg/kg/injection, schedule: Q01DX009 (ip), vehicle: Klucel (hydroxypropylcellulose) (HPC) 107 % of control | endpoint: mean survival time, dose: 1.25 mg/kg/injection, schedule: Q01DX009 (ip), vehicle: Klucel (hydroxypropylcellulose) (HPC) 100 % of control | endpoint: mean survival time, dose: 2.0 mg/kg/injection, schedule: Q01DX009 (ip), vehicle: Klucel (hydroxypropylcellulose) (HPC) 118 % of control | endpoint: mean survival time, dose: 62.0 micrograms/kg/injection, schedule: Q01DX009 (ip), vehicle: Klucel (hydroxypropylcellulose) (HPC) 104 % of control | endpoint: mean survival time, dose: 125.0 micrograms/kg/injection, schedule: Q01DX009 (ip), vehicle: Klucel (hydroxypropylcellulose) (HPC) 102 % of control | endpoint: mean survival time, dose: 250.0 micrograms/kg/injection, schedule: Q01DX009 (ip), vehicle: Klucel (hydroxypropylcellulose) (HPC) 101 % of control | endpoint: mean survival time, dose: 500.0 micrograms/kg/injection, schedule: Q01DX009 (ip), vehicle: Klucel (hydroxypropylcellulose) (HPC) 101 % of control | endpoint: mean survival time, dose: 1000.0 micrograms/kg/injection, schedule: Q01DX009 (ip), vehicle: Klucel (hydroxypropylcellulose) (HPC) 113 % of control | endpoint: mean survival time, dose: 2000.0 micrograms/kg/injection, schedule: Q01DX009 (ip), vehicle: Klucel (hydroxypropylcellulose) (HPC) 108 % of control

CN(C)C(=O)Nc1ccc(F)cc1
inactive: endpoint: mean survival time, dose: 100.0 mg/kg/injection, schedule: Q04DX002 (ip), vehicle: saline with Tween-80 97 % of control | endpoint: mean survival time, dose: 200.0 mg/kg/injection, schedule: Q04DX002 (ip), vehicle: saline with Tween-80 102 % of control | endpoint: mean survival time, dose: 400.0 mg/kg/injection, schedule: Q04DX002 (ip), vehicle: saline with Tween-80 91 % of control
